Laboratory results published in US10538789B2, “Methods for biosynthesis of isoprene” (INVISTA NORTH AMERICA S.A.R.L., priority 2013, dated 2020).

How the values were obtained:
[1] = target: T1, enoyl-CoA hydratase encoded by phaJ (SEQ ID NO: 16) (Aeromonas caviae, UniProt O32472); assay: Enzyme activity assay in the reverse (dehydration) direction, LC-MS; format: biochemical; details: 1 mM substrate, 5 μM purified enzyme, 10 mM ammonium acetate pH 8, 30° C., 1 h
T1 construct: His tag (C); made in house; host or cells: E. coli BL21[DE3]
T1 sequence (O32472 1-134): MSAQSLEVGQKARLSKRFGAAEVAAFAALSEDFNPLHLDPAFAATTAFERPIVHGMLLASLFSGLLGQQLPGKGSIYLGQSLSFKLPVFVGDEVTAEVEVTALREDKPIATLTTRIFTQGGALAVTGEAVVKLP
Protocol: (§1) The C-terminal his-tagged phaJ gene (SEQ ID NO: 16) from Aeromonas punctata was cloned into a pE23a expression vector under the T7 promoter. The expression vector was transformed into a BL21[DE3] E. coli host.
(§2) The resulting recombinant E. coli strain was cultivated in a 1L shake flask culture containing 100 mL Luria Broth media at 30° C., shaking at 200 rpm. The culture was induced using 1 mM IPTG for 2 h.
(§3) The pellet from each of the induced shake flask cultures was harvested by centrifugation. The pellet was resuspended in 20 mM HEPES (pH=7.2), 1 mM PMSF and 29U benzonase. The resuspended pellet was lysed via sonication. The cell debris was separated from the supernatant via centrifugation and filtered using a 0.2 μm filter.
(§4) The phaJ enzyme was purified from the supernatant using Ni-affinity chromatography and concentrated to 1.25 mg/mL.
(§5) The native enzyme activity assay in the reverse (dehydration) direction was undertaken in a buffer composed of 10 mM ammonium acetate (pH=8) and 1 mM of racemic 3-hydroxybutanoyl-CoA. The enzyme activity assay reaction was initiated by adding 5 μM of purified enoyl-CoA hydratase to the assay buffer containing the substrate and incubated at 30° C. for 1 h. The enzyme encoded by phaJ accepted 3-hydroxybutanoyl-CoA as substrate as confirmed via LC-MS.
as §5, with “non-native” for “native”, “3-methyl-3-hydroxypentanoyl-CoA.” for “racemic 3-hydroxybutanoyl-CoA.”, “3-methyl-3-hydroxypentanoyl-CoA” for “3-hydroxybutanoyl-CoA”
The non-native enzyme activity assay in the reverse (dehydration) direction was undertaken in a buffer composed of 10 mM ammonium acetate (pH=8) and 1 mM of 4-methyl-3-hydroxypentanoyl-CoA. […]

[2] = target: T1, enoyl-CoA hydratase encoded by phaJ (SEQ ID NO: 16); assay: Native enzyme activity assay in the forward (hydration) direction, spectrophotometry at 263 nm; format: biochemical, Aeromonas punctata; details: for acceptance as substrate, hydration direction, inferred from reversibility of the enzyme reaction: inferred from the dehydration results and the favoured hydration direction
Protocol: as §1, §2, §3, §4
The native enzyme activity assay in the forward (hydration) direction was undertaken in a buffer composed of 10 mM ammonium acetate (pH=8) and 1 mM of crotonyl-CoA from Sigma-Aldrich at 30° C. The enzyme activity assay reaction was initiated by adding 0.4 μM of purified enoyl-CoA hydratase to the assay buffer containing the substrate. The enzyme encoded by phaJ accepted crotonyl-CoA as substrate as confirmed via spectrophotometry at 263 nm at 30° C.

[3] = target: T2, linalool dehydratase of SEQ ID NO: 13 (CBW30776.1) (Castellaniella defragrans, UniProt E1XUJ2); assay: Whole cell assay of linalool dehydratase in recombinant E. coli, headspace GC-MS for isoprene; format: cell-based; details: 20 mM substrate, 160 mg/mL cells in M9 minimal media, 30° C., 48 h, GC-MS versus empty vector control
T2 construct: expressed in transfected cells; host or cells: E. coli BL21[DE3], whole cells
Protocol: A sequence encoding a C-terminal His-tag encoding the linalool dehydratase of SEQ ID NO: 13 (see FIGS. 9A-9F) was cloned into a pET15 expression vector under control of the T7 promoter such that a C-terminal HIS tagged enzyme could be produced. The expression vector was transformed into a BL21[DE3] E. coli host. The resulting recombinant E. coli strain was cultivated at 30° C. in a 1L shake flask culture containing 100 mL Auto-Induction media and antibiotic selection pressure, shaking at 220 rpm overnight. The pellet from the induced shake flask culture was harvested via centrifugation and used immediately in a whole cell assay.
The pellet was washed and resuspended in M9 minimal media to 160 mg/mL (wet weight) and dispensed into 10 mL crimped glass vials in triplicate. The substrate 3-methyl-3-buten-2-ol was added to a final concentration of 20 mM and incubated at 30° C. at 220 rpm for 48 h. The headspace of each glass vial was analysed by GC-MS for isoprene and compared to the empty vector control (undertaken in triplicate). The gene product of SEQ ID NO: 13 accepted 3-methyl-3-buten-2-ol as substrate as confirmed via GC-MS (see FIG. 15) and synthesized isoprene as reaction product.

[4] = test system: mevalonate diphosphate decarboxylase of SEQ ID NO: 9 (AHF01884.1); assay: GHMP superfamily enzyme activity assay, headspace GC-MS for isoprene; format: biochemical, Thioalkalimicrobium aerophilum; details: 10 mM substrate, 30 mM ATP, pH 7.0, 30° C., 24 h, GC-MS versus empty vector control
From the text: (§6) Each of the sequences encoding a C-terminal His-tagged gene encoding the mevalonate diphosphate decarboxylase of SEQ ID NOs: 8, 9, 10, and 11 respectively (see FIGS. 9A-9F) and the mevalonate 3-kinase of SEQ ID NO: 12 (see FIGS. 9A-9F) was cloned into a PD681-CH expression vector under control of the rhapBAD promoter, such that a C-terminal HIS tagged GHMP superfamily enzyme could be produced. Each expression vector was transformed into a BL21[DE3] E. coli host. The resulting recombinant E. coli strains were cultivated at 37° C. in a 5L shake flask culture containing 1L Luria Broth (LB) media and kanamycin antibiotic selection pressure, with shaking at 90 rpm. At an OD600 between 0.6 to 0.8, the culture was induced with L-rhamnose to a final concentration of 2 g/L. The cultures was induced for 6 h at 37° C. The pellets from the induced shake flask cultures were harvested via centrifugation and stored at −20° C. […]
(§7) Each enzyme activity assay was performed in an assay buffer composed of 100 mM HEPES (pH=7.0), 100 mM KCl, 30 mM MgCl2, 30 mM ATP, 2 mM DTT and 10 mM of 3-methyl-3-hydroxypent-4-enoate as substrate. […] The headspace of each glass vial was analysed by GC-MS for isoprene and compared to the empty vector control. […]

[5] = test system: mevalonate diphosphate decarboxylase of SEQ ID NO: 8 (AAK33797.1); assay: as above; format: biochemical, Streptococcus pyogenes; details: 10 mM substrate, 30 mM ATP, pH 7.0, 30° C., 24 h, GC-MS versus empty vector control
From the text: as §6, §7

[6] = test system: mevalonate diphosphate decarboxylase of SEQ ID NO: 10 (CAR68209.1); assay: as above; format: biochemical, Streptococcus pneumoniae; details: 10 mM substrate, 30 mM ATP, pH 7.0, 30° C., 24 h, GC-MS versus empty vector control
From the text: as §6, §7

[7] = target: T3, mevalonate 3-kinase of SEQ ID NO: 12 (CAC12426.1) (Thermoplasma acidophilum, UniProt Q9HIN1); assay: as above; format: biochemical; details: 10 mM substrate, 30 mM ATP, pH 7.0, 30° C., 24 h, GC-MS versus empty vector control
T3 construct: His tag (C); made in house; host or cells: E. coli BL21[DE3]
T3 sequence (Q9HIN1 1-318): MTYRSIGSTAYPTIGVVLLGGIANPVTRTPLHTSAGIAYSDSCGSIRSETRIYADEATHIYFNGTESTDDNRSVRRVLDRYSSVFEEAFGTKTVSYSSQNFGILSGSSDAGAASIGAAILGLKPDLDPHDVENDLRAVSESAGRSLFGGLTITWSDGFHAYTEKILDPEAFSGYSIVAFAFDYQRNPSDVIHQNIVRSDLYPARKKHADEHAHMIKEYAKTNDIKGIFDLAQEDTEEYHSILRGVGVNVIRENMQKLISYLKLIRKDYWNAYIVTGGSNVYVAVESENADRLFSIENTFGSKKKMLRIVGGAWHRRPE
From the text: as §6, §7

[8] = target: T4, mevalonate diphosphate decarboxylase of SEQ ID NO: 11 (CAA66158.1) (Saccharomyces cerevisiae, UniProt P32377); assay: as above; format: biochemical; details: 10 mM substrate, 30 mM ATP, pH 7.0, 30° C., 24 h, GC-MS versus empty vector control
T4 construct: His tag (C); made in house; host or cells: E. coli BL21[DE3]
T4 sequence (P32377 1-396): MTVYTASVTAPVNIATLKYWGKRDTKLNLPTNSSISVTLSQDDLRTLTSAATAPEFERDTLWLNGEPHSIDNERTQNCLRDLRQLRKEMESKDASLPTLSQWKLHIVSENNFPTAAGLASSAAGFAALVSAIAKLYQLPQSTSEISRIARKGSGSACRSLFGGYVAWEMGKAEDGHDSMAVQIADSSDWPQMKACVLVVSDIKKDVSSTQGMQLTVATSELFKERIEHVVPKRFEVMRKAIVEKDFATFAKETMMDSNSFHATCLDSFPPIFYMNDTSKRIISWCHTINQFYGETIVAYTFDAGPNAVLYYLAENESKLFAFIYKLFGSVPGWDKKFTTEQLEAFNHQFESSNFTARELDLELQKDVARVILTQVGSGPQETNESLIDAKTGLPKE
From the text: as §6, §7

T2 sequence (E1XUJ2 27-397): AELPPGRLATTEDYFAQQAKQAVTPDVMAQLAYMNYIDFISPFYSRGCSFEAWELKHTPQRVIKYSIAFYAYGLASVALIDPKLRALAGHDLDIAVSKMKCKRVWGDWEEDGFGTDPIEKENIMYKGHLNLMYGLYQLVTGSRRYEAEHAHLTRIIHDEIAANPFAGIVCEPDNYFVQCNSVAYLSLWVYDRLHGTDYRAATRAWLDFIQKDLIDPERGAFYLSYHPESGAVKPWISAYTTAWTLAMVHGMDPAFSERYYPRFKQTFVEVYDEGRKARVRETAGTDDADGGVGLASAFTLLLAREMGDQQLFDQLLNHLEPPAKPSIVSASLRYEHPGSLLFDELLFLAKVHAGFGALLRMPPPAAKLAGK

## CCC(C)(O)CC(=O)SCCNC(=O)CCNC(=O)[C@H](O)C(C)(C)COP(=O)(O)OP(=O)(O)OC[C@H]1O[C@@H](n2cnc3c(N)ncnc32)[C@H](O)[C@@H]1OP(=O)(O)O (stereo partly drawn) [3-methyl-3-hydroxypentanoyl-CoA]
[1]
  acceptance as substrate, reverse (dehydration) direction: accepted

## CC(C)C(O)CC(=O)SCCNC(=O)CCNC(=O)[C@H](O)C(C)(C)COP(=O)(O)OP(=O)(O)OC[C@H]1O[C@@H](n2cnc3c(N)ncnc32)[C@H](O)[C@@H]1OP(=O)(O)O (stereo partly drawn) [4-methyl-3-hydroxypentanoyl-CoA]
[1]
  acceptance as substrate, reverse (dehydration) direction: accepted

## CC(C)C=CC(=O)SCCNC(=O)CCNC(=O)[C@H](O)C(C)(C)COP(=O)(O)OP(=O)(O)OC[C@H]1O[C@@H](n2cnc3c(N)ncnc32)[C@H](O)[C@@H]1OP(=O)(O)O [4-methyl-pent-2-enoyl-CoA]
[2]
  acceptance as substrate, hydration direction, inferred from reversibility of the enzyme reaction: accepts

## C/C=C/C(=O)SCCNC(=O)CCNC(=O)[C@H](O)C(C)(C)COP(=O)(O)OP(=O)(O)OC[C@H]1O[C@@H](n2cnc3c(N)ncnc32)[C@H](O)[C@@H]1OP(=O)(O)O [crotonyl-CoA, reference compound]
[2]; 1 mM substrate, 0.4 μM purified enzyme, 10 mM ammonium acetate pH 8, 30° C., spectrophotometry at 263 nm
  acceptance as substrate, forward (hydration) direction: accepted

## C=C(C)C(C)O (stereo not drawn) [3-methyl-3-buten-2-ol]
[3]
  acceptance as substrate, isoprene as reaction product: accepted

## CCC(C)=CC(=O)SCCNC(=O)CCNC(=O)[C@H](O)C(C)(C)COP(=O)(O)OP(=O)(O)OC[C@H]1O[C@@H](n2cnc3c(N)ncnc32)[C@H](O)[C@@H]1OP(=O)(O)O [3-methyl-pent-2-enoyl-CoA]
[2]
  acceptance as substrate, hydration direction, inferred from reversibility of the enzyme reaction: accepts

## C=CC(C)(O)CC(=O)O (stereo not drawn) [3-methyl-3-hydroxypent-4-enoate]
[4]
  acceptance as substrate, isoprene as reaction product: accepted
[5]
  acceptance as substrate, isoprene as reaction product: accepted
[6]
  acceptance as substrate, isoprene as reaction product: accepted
[7]
  acceptance as substrate, isoprene as reaction product: accepted
[8]
  acceptance as substrate, isoprene as reaction product: accepted

## CC(O)CC(=O)SCCNC(=O)CCNC(=O)[C@H](O)C(C)(C)COP(=O)(O)OP(=O)(O)OC[C@H]1O[C@@H](n2cnc3c(N)ncnc32)[C@H](O)[C@@H]1OP(=O)(O)O (mixture of isomers) [3-hydroxybutanoyl-CoA, reference compound]
[1]
  acceptance as substrate, reverse (dehydration) direction: accepted
